The text below walks through data of patent US10143681B2, “Factor XIa inhibitors” (MERCK SHARP & DOHME CORP., priority 2016, dated 2018).

One assay concerns the target human Factor XIa (Homo sapiens (Human), UniProt P03951). Nature of the assay: Factor XIa Assay. The format is biochemical. The note with it: human Factor XIa 0.04 nM, 30 min pre-incubation at 25° C., substrate GPR-AFC; read-out: FXIa IC50. The method, boiled down: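 IC50 values were obtained from four-parameter log(inhibitor)-response fits of % inhibition, then converted to Ki using Cheng-Prusoff. GPR-AFC hydrolysis was read at 400/505 nm after 60 min at 25 °C.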

The target in the next assay is Human plasma kallikrein (Homo sapiens (Human), UniProt P03952). Nature of the assay: Kallikrein Assay. To be noted: purified Human plasma kallikrein 0.5 nM, substrate Acetyl-K-P-R-AFC; read-out: P. KLK IC50. It is filed as biochemical. As to the method: The effectiveness of a compound of the present invention as an inhibitor of Kallikrein can be determined using a relevant purified serine protease, and an appropriate synthetic substrate. The rate of hydrolysis of the chromogenic or fluorogenic substrate by the relevant serine protease was measured both in the absence and presence of compounds of the present invention. Assays were conducted at room temperature or at 37° C. […] A decrease in the rate of fluorescence change in the presence of inhibitor is indicative of enzyme inhibition. Such methods are known to one skilled in the art. The results of this assay are expressed as the half-maximal inhibitory concentrations (IC50), or the inhibitory constant, Ki.
Kallikrein determinations were made in 50 mM HEPES buffer at pH 7.4 containing 150 mM NaCl, 5 mM CaCl2, and 0.1% PEG 8000 (polyethylene glycol; Fisher Scientific). Determinations were made using purified Human plasma kallikrein at a final concentration of 0.5 nM (Enzyme Research Laboratories) and the synthetic substrate, Acetyl-K-P-R-AFC (Sigma # C6608) at a concentration of […].
Times required to achieve equilibration between enzyme and inhibitor were determined in control experiments. The reactions were performed under linear progress curve conditions and fluorescence increase measured at 405 Ex/510 Em nm. […] IC50 was determined by inflection point from a four parameter logistic curve fit. Ki was calculated using the Cheng Prusoff equation, Ki=IC50/(1+([S]/Km)).

For assay [1], the system named is Human plasma (intrinsic coagulation cascade). Nature of the assay: Activated Partial Thromboplastin Time (aPTT) Assay. The note with it: concentration that causes a 50% (1.5×) increase of clot time over vehicle. As to the method:
Activated partial thromboplastin time (aPTT) is a clotting test that measures the intrinsic coagulation cascade. The test is performed in sodium citrated plasma. Human plasma is made by collecting blood from healthy donors of both genders into Na citrate tubes (Sarstedt coagulation 9NC/10 ml). Blood is centrifuged at 1500×g and the plasma is collected. aPTT is checked on each individual donor and those within the normal range (28-40 seconds) are pooled, aliquoted, and stored at −80 C. Test samples are prepared by spiking inhibitors or vehicle into plasma. These spiked samples are then run on a coagulation analyzer (STA-R Evolution, Stago Diagnostica). In general, the analyzer performs the following steps: Factor XII is activated by addition of ellagic acid (Pacific Hemostasis), and then time to clot is measured after re-calcification of the sample. Inhibition of FXI will cause aPTT clot time to be prolonged. The data is expressed as percent increase over vehicle control clot time and the concentration that causes a 50% (1.5×) percent increase of clot time are reported.

Chain of Human plasma kallikrein (P03952 391-638): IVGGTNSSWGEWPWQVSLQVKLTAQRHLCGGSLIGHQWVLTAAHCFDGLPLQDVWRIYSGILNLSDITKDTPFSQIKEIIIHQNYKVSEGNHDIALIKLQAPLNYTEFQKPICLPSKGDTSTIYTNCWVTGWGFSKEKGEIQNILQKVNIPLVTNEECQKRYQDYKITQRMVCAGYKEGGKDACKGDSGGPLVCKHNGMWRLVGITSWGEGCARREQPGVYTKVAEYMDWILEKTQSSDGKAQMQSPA
Chain of Human plasma kallikrein (P03952 20-390 partner): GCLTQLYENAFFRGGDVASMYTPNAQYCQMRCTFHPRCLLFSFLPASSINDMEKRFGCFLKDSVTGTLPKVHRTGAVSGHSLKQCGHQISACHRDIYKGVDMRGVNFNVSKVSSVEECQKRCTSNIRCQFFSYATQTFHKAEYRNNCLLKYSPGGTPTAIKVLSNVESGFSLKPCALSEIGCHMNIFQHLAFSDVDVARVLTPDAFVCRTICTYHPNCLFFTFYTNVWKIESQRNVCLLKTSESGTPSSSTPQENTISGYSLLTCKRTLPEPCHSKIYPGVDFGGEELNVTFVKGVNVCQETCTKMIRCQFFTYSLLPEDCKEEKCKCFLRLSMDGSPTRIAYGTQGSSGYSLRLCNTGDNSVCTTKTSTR
Chain of human Factor XIa (P03951 388-625): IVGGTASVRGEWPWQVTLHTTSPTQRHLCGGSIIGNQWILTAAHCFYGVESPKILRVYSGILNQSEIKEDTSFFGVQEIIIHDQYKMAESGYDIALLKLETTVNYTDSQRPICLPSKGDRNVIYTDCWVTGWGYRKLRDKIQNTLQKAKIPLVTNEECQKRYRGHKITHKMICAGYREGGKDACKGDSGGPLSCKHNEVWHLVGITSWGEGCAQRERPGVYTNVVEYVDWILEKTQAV
Chain of human Factor XIa (P03951 19-387 partner): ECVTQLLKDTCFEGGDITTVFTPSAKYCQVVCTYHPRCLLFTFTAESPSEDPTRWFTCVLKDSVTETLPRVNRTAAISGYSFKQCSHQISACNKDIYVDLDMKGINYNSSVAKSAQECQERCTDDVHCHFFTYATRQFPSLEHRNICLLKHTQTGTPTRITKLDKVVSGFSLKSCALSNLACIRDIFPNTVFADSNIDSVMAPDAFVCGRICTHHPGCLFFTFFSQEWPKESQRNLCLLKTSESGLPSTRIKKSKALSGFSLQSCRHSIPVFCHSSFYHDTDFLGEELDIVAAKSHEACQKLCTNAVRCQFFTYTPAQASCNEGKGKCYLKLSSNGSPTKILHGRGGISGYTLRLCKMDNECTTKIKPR

Regarding `O=C(O)c1ccc(NC(=O)C(CC2CC2C(F)(F)F)c2ccc(-c3c(OC(F)F)ccc(Cl)c3F)c[n+]2[O-])cc1` (single isomer, unassigned) [Example 107, 2-(1-((4-carboxyphenyl)amino)-1-oxo-3-(2-(trifluoromethyl)cyclopropyl)propan-2-yl)-5-(3-chloro-6-(difluoromethoxy)-2-fluorophenyl)pyridine 1-oxide], the IC50 at human Factor XIa was determined as 3.2 nM; on Human plasma kallikrein, 24.2 nM. In addition, in assay [1], the “aPTT (1.5x)” value came out at 1.74 µM.

As for `O=C(O)c1ccc(NC(=O)C(CC2CC2CF)c2ccc(-c3c(C(F)F)ccc(Cl)c3F)c[n+]2[O-])cc1` (single isomer, unassigned) [Example 94, 2-(1-((4-carboxyphenyl)amino)-3-(2-(fluoromethyl)cyclopropyl)-1-oxopropan-2-yl)-5-(3-chloro-6-(difluoromethyl)-2-fluorophenyl)pyridine 1-oxide], the IC50 on human Factor XIa turned out to be 0.4 nM; at Human plasma kallikrein, 6 nM. For the same molecule, in assay [1], the “aPTT (1.5x)” value came out at 0.4 µM.

`CC1CC1C[C@@H](C(=O)Nc1ccc(C(=O)O)cc1)c1ccc(-c2c(C(F)F)ccc(Cl)c2F)c[n+]1[O-]` (single isomer, unassigned) [Example 62]: the IC50 came out at 0.21 nM on human Factor XIa and 6.1 nM on Human plasma kallikrein. Also, the “aPTT (1.5x)” value in assay [1] turned out to be 0.35 µM.

As for `N#CC1(CC(C(=O)Nc2ccc(C(=O)O)cc2)c2ccc(-c3c(C(F)(F)F)ccc(Cl)c3F)c[n+]2[O-])CC1` (racemic) [Example 30, 2-(1-((4-carboxyphenyl)amino)-3-(1-cyanocyclopropyl)-1-oxopropan-2-yl)-5-(3-chloro-2-fluoro-6-(trifluoromethyl)phenyl)pyridine 1-oxide], the IC50 at human Factor XIa was determined as 7.6 nM; at Human plasma kallikrein it was 155 nM. Moreover, in assay [1], the “aPTT (1.5x)” value turned out to be 5.27 µM.

As for `C[C@]1(O)CC[C@H](CC(C(=O)Nc2ccc(C(=O)O)cc2)c2ccc(-c3c(C(F)F)ccc(Cl)c3F)c[n+]2[O-])CC1` (single isomer, unassigned) [Example 47, 2-(1-((4-carboxyphenyl)amino)-3-((1r,4r)-4-hydroxy-4-methylcyclohexyl)-1-oxopropan-2-yl)-5-(3-chloro-6-(difluoromethyl)-2-fluorophenyl)pyridine 1-oxide], the IC50 at human Factor XIa came out at 0.56 nM; on Human plasma kallikrein it was 20 nM. In addition, the “aPTT (1.5x)” value in assay [1] stood at 0.59 µM.

Regarding `CCOc1ccc(Cl)c(F)c1-c1ccc(C(CC2CC2)C(=O)Nc2ccc(C(=O)O)cc2)[n+]([O-])c1` (single isomer, unassigned) [Example 9, (R)- or (S)-4-({2-[5-(3-chloro-6-ethoxy-2-fluorophenyl)-1-oxidopyridin-2-yl]-3-cyclopropylpropanoyl}amino) benzoic acid], the IC50 at human Factor XIa came out at 9 nM; on Human plasma kallikrein it was 857 nM. The “aPTT (1.5x)” value in assay [1] came out at 13 µM.

As for `O=C(O)c1ccc(NC(=O)C(CC2CCC2)c2ccc(-c3c(OC(F)F)ccc(Cl)c3F)c[n+]2[O-])cc1` (single isomer, unassigned) [Example 15, (R)- or (S)-4-[(2-{5-[3-chloro-6-(difluoromethoxy)-2-fluorophenyl]-1-oxidopyridin-2-yl}-3-cyclobutylpropanoyl)amino] benzoic acid], the IC50 stood at 0.56 nM on human Factor XIa and 20 nM on Human plasma kallikrein. Also, the “aPTT (1.5x)” value in assay [1] is 0.75 µM.

In the case of `C[C@]1(O)CC[C@@H](CC(C(=O)Nc2ccc(C(=O)O)cc2)c2ccc(-c3c(C(F)F)ccc(Cl)c3F)c[n+]2[O-])CC1` (single isomer, unassigned) [Example 45, 2-(1-((4-carboxyphenyl)amino)-3-((1s,4s)-4-hydroxy-4-methylcyclohexyl)-1-oxopropan-2-yl)-5-(3-chloro-6-(difluoromethyl)-2-fluorophenyl)pyridine 1-oxide], the values for the IC50 at human Factor XIa and on Human plasma kallikrein were 2.7 nM and 12 nM, respectively. For the same molecule, the “aPTT (1.5x)” value in assay [1] was determined as 1.16 µM.

For `O=C(O)c1ccc(NC(=O)C(CC2CC2)c2ccc(-c3c(C(F)(F)F)ccc(Cl)c3F)c[n+]2[O-])cc1` (single isomer, unassigned) [Example 27, (R)- or (S)-2-(1-((4-carboxyphenyl)amino)-3-cyclopropyl-1-oxopropan-2-yl)-5-(3-chloro-2-fluoro-6-(trifluoromethyl)phenyl)pyridine 1-oxide], the half-inhibitory concentration (IC50) stood at 2.8 nM at human Factor XIa and 162 nM at Human plasma kallikrein. In addition, the “aPTT (1.5x)” value in assay [1] worked out at 2.68 µM.

For `O=C(O)c1ccc(NC(=O)C(CC2CC2F)c2ccc(-c3c(C(F)F)ccc(Cl)c3F)c[n+]2[O-])cc1` (single isomer, unassigned) [Example 93, 2-(1-((4-carboxyphenyl)amino)-3-(2-fluorocyclopropyl)-1-oxopropan-2-yl)-5-(3-chloro-6-(difluoromethyl)-2-fluorophenyl)pyridine-1-oxide], the IC50 at human Factor XIa stood at 3.3 nM; on Human plasma kallikrein, 28 nM. Further, in assay [1], the “aPTT (1.5x)” value was 0.8 µM.

As for `CC1CC(CC(C(=O)Nc2ccc(C(=O)O)cc2)c2ccc(-c3c(C(F)(F)F)ccc(Cl)c3F)c[n+]2[O-])C1` (single isomer, unassigned) [Example 74, 2-(1-((4-carboxyphenyl)amino)-3-(3-methylcyclobutyl)-1-oxopropan-2-yl)-5-(3-chloro-2-fluoro-6-(trifluoromethyl)phenyl) pyridine 1-oxide], the IC50 at human Factor XIa came to 1.3 nM; on Human plasma kallikrein it was 19.2 nM. In addition, the “aPTT (1.5x)” value in assay [1] came out at 2.77 µM.

For the molecule `N#CC1(CC(C(=O)Nc2ccc(C(=O)O)cc2)c2ccc(-c3c(C(F)F)ccc(Cl)c3F)c[n+]2[O-])CC1` (racemic) [Example 31, 2-(1-((4-carboxyphenyl)amino)-3-(1-cyanocyclopropyl)-1-oxopropan-2-yl)-5-(3-chloro-6-(difluoromethyl)-2-fluorophenyl)pyridine 1-oxide], the IC50 on human Factor XIa came out at 3 nM; at Human plasma kallikrein it was 31 nM. The “aPTT (1.5x)” value in assay [1] is 0.88 µM.

In the case of `O=C(O)c1ccc(NC(=O)C(CC23CC(C2)C3)c2ccc(-c3c(C(F)F)ccc(Cl)c3F)c[n+]2[O-])cc1F` (single isomer, unassigned) [Example 124, 2-(3-(bicyclo[1.1.1]pentan-1-yl)-1-((4-carboxy-3-fluorophenyl)amino)-1-oxopropan-2-yl)-5-(3-chloro-6-(difluoromethyl)-2-fluorophenyl)pyridine 1-oxide], at Human plasma kallikrein, the 50% inhibitory concentration (IC50) was determined as 4.7 nM. Further, the “aPTT (1.5x)” value in assay [1] came to 1.76 µM.

On to `COc1cc(C(CC2CC2)C(=O)Nc2ccc(C(=O)O)cc2)[n+]([O-])cc1-c1c(OC(F)F)ccc(Cl)c1F` (single isomer, unassigned) [Example 71, 2-(1-((4-carboxyphenyl)amino)-3-cyclopropyl-1-oxopropan-2-yl)-5-(3-chloro-6-(difluoromethoxy)-2-fluorophenyl)-4-methoxypyridine 1-oxide], for which the IC50 on Human plasma kallikrein amounted to 11 nM. The “aPTT (1.5x)” value in assay [1] was 1.24 µM.

As for `O=C(O)c1ccc(NC(=O)C(CC2CC2)c2ccc(-c3c(OC(F)F)ccc(Cl)c3F)c[n+]2[O-])cc1F` (single isomer, unassigned) [Example 73], the IC50 on Human plasma kallikrein amounted to 88 nM. In assay [1], the “aPTT (1.5x)” value turned out to be 2.15 µM.

Turning to `O=C(O)c1ccc(NC(=O)C(CC2CCC2)c2ccc(-c3c(C(F)F)ccc(Cl)c3F)c[n+]2[O-])cc1F` (single isomer, unassigned) [Example 120, 2-(1-((4-carboxy-3-fluorophenyl)amino)-3-cyclobutyl-1-oxopropan-2-yl)-5-(3-chloro-6-(difluoromethyl)-2-fluorophenyl)pyridine 1-oxide], the IC50 at Human plasma kallikrein amounted to 2.1 nM. Also, the “aPTT (1.5x)” value in assay [1] was determined as 0.75 µM.

As for `O=C(O)c1ccc(NC(=O)C(CC2CC2)c2ccc(-c3c(C(F)F)ccc(Cl)c3F)c[n+]2[O-])cc1F` (single isomer, unassigned) [Example 118, 2-(1-((4-carboxy-3-fluorophenyl)amino)-3-cyclopropyl-1-oxopropan-2-yl)-5-(3-chloro-6-(difluoromethyl)-2-fluorophenyl)pyridine 1-oxide], the IC50 at Human plasma kallikrein was 14.6 nM. Also, the “aPTT (1.5x)” value in assay [1] was determined as 0.66 µM.

The IC50 is the concentration that inhibits the measured activity by half.
